Assay results taken from patent US20250228865A1, “COMPOUNDS FOR ENHANCING READ THROUGH OF GENES CONTAINING PREMATURE TERMINATION CODONS AND METHODS FOR MAKING AND USING THE SAME” (Sanofi US Services Inc., priority 2022, published 2025).

Columns and labels:
[1] = test system: recombinant human CFTR carrying the premature stop codon (PTC) mutation R1162X; test: CFTR-PTC mutant translation readthrough, Nanoluc tagged CFTR luminescence (R1162X cell line); assay type: cell-based; conditions: for CFTR R1162X ACTIVITY Fold 10 μM G-418: fold over 10 μM G-418, in combination with G418; for EC50: in combination with G418, 16HBE cells, read-out: CFTR R1162X ACTIVITY EC50
Procedure, shortened: (§1)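 16HBE cells stably expressing Nanoluc-tagged human CFTR with G542X or R1162X, in medium with 3 μM VX-809, treated 48 h at 37 °C with compound (10-point, 2-fold, top 50 μM final) alone or with 10 μM G418. Live-cell Nanoluc luminescence normalised to a maximally effective G418 (125-250 μM).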

[2] = test system: recombinant human CFTR carrying the premature stop codon (PTC) mutation G542X; test: CFTR-PTC mutant translation readthrough, Nanoluc tagged CFTR luminescence (G542X cell line); assay type: cell-based; conditions: in combination with G418, G542X cell line; for CFTR G542X ACTIVITY Fold 10 μM G-418: fold over 10 μM G-418; for EC50: 16HBE cells
Procedure, shortened: as §1

| Compound | EC50 [1] [µM] | EC50 [2] [µM] | CFTR R1162X ACTIVITY Fold 10 μM G-418 [1] | CFTR G542X ACTIVITY Fold 10 μM G-418 [2] |
| --- | --- | --- | --- | --- |
| CNCC1CN(c2ncc(OCc3c(Cl)cccc3Cl)cn2)CCO1 (stereo not shown) | 1 to 10 | 1 to 10 | B′ (B′ = ≥5X to <10X) | B′ (B′ = ≥5X to <10X) |
| CN1C(=O)CN(c2ccc(OCc3c(Cl)cccc3C(F)(F)F)cn2)C1=O | < 1 | < 1 | A′ (A′ = ≥10X) | A′ (A′ = ≥10X) |
| Cc1cccc(C(F)(F)F)c1COc1cnc(N2CCC(O)(c3cccnc3)CC2)nc1 | < 1 | < 1 | A′ (A′ = ≥10X) | A′ (A′ = ≥10X) |
| Cc1cccc(C(F)(F)F)c1COc1cnc(N2CCC(O)(c3ccccn3)CC2)nc1 | 1 to 10 | < 1 | A′ (A′ = ≥10X) | A′ (A′ = ≥10X) |
| CCCCN1CC(=O)N(c2ccc(OCc3c(C)cccc3C(F)(F)F)cc2)C1=O | 1 to 10 | 1 to 10 | B′ (B′ = ≥5X to <10X) | B′ (B′ = ≥5X to <10X) |
| CC1(C)NC(=O)N(c2ccc(OCc3c(Cl)cccc3C(F)(F)F)cn2)C1=O | 1 to 10 | 1 to 10 | B′ (B′ = ≥5X to <10X) | A′ (A′ = ≥10X) |
| Cc1cccc(C(F)(F)F)c1COc1cnc(N2CC3CC(C2)C3O)nc1 (stereo not shown) | 1 to 10 | 1 to 10 | A′ (A′ = ≥10X) | A′ (A′ = ≥10X) |
| O=C1OC(CO)CN1c1cnc(OCc2c(Cl)cccc2Cl)cn1 (stereo not shown) | > 10 | 1 to 10 | B′ (B′ = ≥5X to <10X) | B′ (B′ = ≥5X to <10X) |
| Cc1cccc(C(F)(F)F)c1COc1cnc(N2CC(=O)N(C)C2=O)nc1 | 1 to 10 | 1 to 10 | A′ (A′ = ≥10X) | A′ (A′ = ≥10X) |
| Cc1cccc(C(C)(F)F)c1COc1cnc(N2CCN(C(N)=O)CC2)nc1 | < 1 | < 1 | A′ (A′ = ≥10X) | A′ (A′ = ≥10X) |
| FC(F)(F)c1cccc(Cl)c1COc1cnc(-n2cc(-c3ccccn3)nn2)nc1 | < 1 | < 1 | A′ (A′ = ≥10X) | A′ (A′ = ≥10X) |
| FC1(F)CCN(c2ncc(OCc3c(Cl)cccc3C(F)(F)F)cn2)C1 | 1 to 10 | 1 to 10 | A′ (A′ = ≥10X) | A′ (A′ = ≥10X) |
| CN(CC1CNCCO1)c1ncc(OCc2c(Cl)cccc2Cl)cn1 (stereo not shown) | 1 to 10 | 1 to 10 | C′ (C′ = <5X) | C′ (C′ = <5X) |
| Cc1cccc(C(F)(F)F)c1COc1ccc(N2C(=O)NC(C)(C)C2=O)nc1 | 1 to 10 | 1 to 10 | B′ (B′ = ≥5X to <10X) | A′ (A′ = ≥10X) |
| CC(=O)NC[C@@H]1CN(c2ncc(OCc3c(C)cccc3C(F)(F)F)cn2)CCO1 | 1 to 10 | < 1 | A′ (A′ = ≥10X) | A′ (A′ = ≥10X) |
| CC(=O)NC[C@H]1CN(c2ncc(OCc3c(C)cccc3C(F)(F)F)cn2)CCO1 | 1 to 10 | < 1 | A′ (A′ = ≥10X) | A′ (A′ = ≥10X) |
| Cc1cccc(C(F)(F)F)c1COc1cnc(N2CCN(C(N)=O)[C@@H](C)C2)nc1 | < 1 | < 1 | A′ (A′ = ≥10X) | A′ (A′ = ≥10X) |
| OCc1cc(-c2ncc(OCc3c(Cl)cccc3C(F)(F)F)cn2)no1 | 1 to 10 | < 1 | A′ (A′ = ≥10X) | A′ (A′ = ≥10X) |
| Cc1cccc(C(F)(F)F)c1COc1cnc(-c2cc(CO)on2)nc1 | 1 to 10 | < 1 | A′ (A′ = ≥10X) | A′ (A′ = ≥10X) |
| Cc1cccc(C(F)(F)F)c1COc1cnc(N2CC[C@@H](C(N)=O)C2)nc1 | 1 to 10 | 1 to 10 | A′ (A′ = ≥10X) | A′ (A′ = ≥10X) |
| NC(=O)[C@H]1CCN(c2ncc(OCc3c(Cl)cccc3C(F)(F)F)cn2)C1 | 1 to 10 | 1 to 10 | A′ (A′ = ≥10X) | A′ (A′ = ≥10X) |
| OCc1nnc(-c2ccc(OCc3c(Cl)cccc3C(F)(F)F)cc2)o1 | < 1 | < 1 | A′ (A′ = ≥10X) | A′ (A′ = ≥10X) |

Now from value to compound, other results behind:

| EC50 [1] [µM] | EC50 [2] [µM] | Compound | CFTR R1162X ACTIVITY Fold 10 μM G-418 [1] | CFTR G542X ACTIVITY Fold 10 μM G-418 [2] |
| --- | --- | --- | --- | --- |
| 1 to 10 | 1 to 10 | Cc1cccc(C(C)(F)F)c1COc1ccc(N2CC(CO)NC2=O)nc1 (stereo not shown) | A′ (A′ = ≥10X) | A′ (A′ = ≥10X) |
| < 1 | < 1 | CC1(O)CCN(c2ncc(OCc3c(Cl)cccc3C(F)(F)F)cn2)CC1 | A′ (A′ = ≥10X) | A′ (A′ = ≥10X) |
| 1 to 10 | < 1 | Cc1cccc(C(F)(F)F)c1COc1cnc(N2CCC(N)CC2)nc1 | A′ (A′ = ≥10X) | A′ (A′ = ≥10X) |
| 1 to 10 | 1 to 10 | Cc1cccc(C(F)(F)F)c1COc1cnc(N2CC(=O)NC2=O)nc1 | A′ (A′ = ≥10X) | A′ (A′ = ≥10X) |
| > 10 | > 10 | COc1cccc(Br)c1COc1ccc(N2CC(CO)OC2=O)cc1 (stereo not shown) | B′ (B′ = ≥5X to <10X) | A′ (A′ = ≥10X) |
| 1 to 10 | < 1 | Cc1cccc(C(F)(F)F)c1COc1ccc(N2C(=O)NC3(CCCC3)C2=O)cc1 | B′ (B′ = ≥5X to <10X) | A′ (A′ = ≥10X) |
| 1 to 10 | 1 to 10 | CN1CC(=O)N(c2ccc(OCc3c(Cl)cccc3C(F)(F)F)cn2)C1=O | C′ (C′ = <5X) | A′ (A′ = ≥10X) |
| 1 to 10 | 1 to 10 | COc1ccc(CN2C(=O)CN(c3ccc(OCc4c(C)cccc4C(F)(F)F)cc3)C2=O)cc1 | B′ (B′ = ≥5X to <10X) | B′ (B′ = ≥5X to <10X) |
| 1 to 10 | 1 to 10 | Cc1cccc(C(F)(F)F)c1COc1cnc(N2CC(=O)N(CO)C2=O)nc1 | A′ (A′ = ≥10X) | A′ (A′ = ≥10X) |
| < 1 | < 1 | Cc1cccc(C(F)(F)F)c1COc1ccc(N2CC(=O)N(C)C2=O)nc1 | A′ (A′ = ≥10X) | A′ (A′ = ≥10X) |
| < 1 | < 1 | Cc1cccc(C(F)(F)F)c1COc1cnc(N2CCC(O)C(C)(C)C2)nc1 (stereo not shown) | A′ (A′ = ≥10X) | A′ (A′ = ≥10X) |
| < 1 | < 1 | FC(F)(F)c1cccc(Cl)c1COc1cnc(-n2ncc(-c3ccccn3)n2)nc1 | A′ (A′ = ≥10X) | A′ (A′ = ≥10X) |
| < 1 | < 1 | Cc1cccc(C(F)(F)F)c1COc1cnc(-n2cc(-c3ccccn3)nn2)nc1 | B′ (B′ = ≥5X to <10X) | A′ (A′ = ≥10X) |
| 1 to 10 | < 1 | Cc1cccc(C(F)(F)F)c1COc1ccc(N2C(=O)NC(C(C)C)C2=O)cc1 (stereo not shown) | A′ (A′ = ≥10X) | A′ (A′ = ≥10X) |
| < 1 | < 1 | CNC(=O)N1CCN(c2ncc(OCc3c(C)cccc3C(F)(F)F)cn2)CC1 | A′ (A′ = ≥10X) | A′ (A′ = ≥10X) |
| 1 to 10 | < 1 | Cc1cccc(C(F)(F)F)c1COc1ccc(-n2cnc(CN)n2)cc1 | A′ (A′ = ≥10X) | A′ (A′ = ≥10X) |
| < 1 | < 1 | Cc1cccc(C(F)(F)F)c1COc1ccc(-n2cc(CO)nn2)nc1 | A′ (A′ = ≥10X) | A′ (A′ = ≥10X) |
| < 1 | < 1 | Cc1cccc(C(F)(F)F)c1COc1ccc(-n2ncc(CO)n2)nc1 | A′ (A′ = ≥10X) | A′ (A′ = ≥10X) |
| 1 to 10 | 1 to 10 | NC(=O)[C@@H]1CCN(c2ncc(OCc3c(Cl)cccc3C(F)(F)F)cn2)C1 | A′ (A′ = ≥10X) | A′ (A′ = ≥10X) |
| 1 to 10 | 1 to 10 | Cc1cccc(C(F)(F)F)c1COc1cnc(N2CC[C@H](C(N)=O)C2)nc1 | A′ (A′ = ≥10X) | A′ (A′ = ≥10X) |
| 1 to 10 | < 1 | OCc1cc(-c2ncc(OCc3c(Cl)cccc3C(F)(F)F)cn2)[nH]n1 | A′ (A′ = ≥10X) | A′ (A′ = ≥10X) |
